Data from patent US12479847B2 (DANA-FARBER CANCER INSTITUTE, INC., priority 2019, dated 2025).

What was measured:
Test in all cases: KINOMEscan (ScanMAX) kinase profiling
Format in all cases: binding
[1] = molecular target: T1, panel of 468 kinases (Homo sapiens, UniProt O96017); conditions: CHEK2; 1 μM; read-out: % control
T1 construct: purchased KINOMEscan (ScanMAX) service

[2] = molecular target: T2, panel of 468 kinases (Homo sapiens, UniProt O15075); conditions: DCAMKL1; 1 μM; read-out: % control
T2 construct: purchased KINOMEscan (ScanMAX) service
T2 sequence (O15075 whole entry): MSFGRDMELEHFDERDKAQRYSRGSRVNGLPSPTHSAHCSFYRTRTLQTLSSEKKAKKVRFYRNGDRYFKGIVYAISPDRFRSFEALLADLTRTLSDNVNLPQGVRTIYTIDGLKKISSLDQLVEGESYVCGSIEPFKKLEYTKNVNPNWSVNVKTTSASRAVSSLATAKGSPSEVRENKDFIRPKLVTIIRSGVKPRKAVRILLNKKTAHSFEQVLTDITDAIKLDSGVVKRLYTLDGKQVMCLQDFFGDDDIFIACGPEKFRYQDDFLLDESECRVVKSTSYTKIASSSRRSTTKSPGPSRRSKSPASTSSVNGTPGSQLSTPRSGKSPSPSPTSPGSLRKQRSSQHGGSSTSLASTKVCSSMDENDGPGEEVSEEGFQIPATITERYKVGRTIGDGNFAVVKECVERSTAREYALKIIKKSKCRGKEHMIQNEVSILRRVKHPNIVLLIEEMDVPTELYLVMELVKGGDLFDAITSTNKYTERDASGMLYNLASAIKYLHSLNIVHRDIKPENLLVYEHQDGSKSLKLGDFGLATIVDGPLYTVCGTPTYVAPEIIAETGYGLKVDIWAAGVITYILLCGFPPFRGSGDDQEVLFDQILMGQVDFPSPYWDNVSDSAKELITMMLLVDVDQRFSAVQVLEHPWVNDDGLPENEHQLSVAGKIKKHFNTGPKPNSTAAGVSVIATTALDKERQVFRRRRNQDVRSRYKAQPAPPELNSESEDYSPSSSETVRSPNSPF

[3] = molecular target: T3, panel of 468 kinases (Homo sapiens, UniProt P22607, G697C); conditions: FGFR3(G697C); 1 μM; read-out: % control
T3 construct: purchased KINOMEscan (ScanMAX) service
T3 sequence (P22607 23-806 G697C): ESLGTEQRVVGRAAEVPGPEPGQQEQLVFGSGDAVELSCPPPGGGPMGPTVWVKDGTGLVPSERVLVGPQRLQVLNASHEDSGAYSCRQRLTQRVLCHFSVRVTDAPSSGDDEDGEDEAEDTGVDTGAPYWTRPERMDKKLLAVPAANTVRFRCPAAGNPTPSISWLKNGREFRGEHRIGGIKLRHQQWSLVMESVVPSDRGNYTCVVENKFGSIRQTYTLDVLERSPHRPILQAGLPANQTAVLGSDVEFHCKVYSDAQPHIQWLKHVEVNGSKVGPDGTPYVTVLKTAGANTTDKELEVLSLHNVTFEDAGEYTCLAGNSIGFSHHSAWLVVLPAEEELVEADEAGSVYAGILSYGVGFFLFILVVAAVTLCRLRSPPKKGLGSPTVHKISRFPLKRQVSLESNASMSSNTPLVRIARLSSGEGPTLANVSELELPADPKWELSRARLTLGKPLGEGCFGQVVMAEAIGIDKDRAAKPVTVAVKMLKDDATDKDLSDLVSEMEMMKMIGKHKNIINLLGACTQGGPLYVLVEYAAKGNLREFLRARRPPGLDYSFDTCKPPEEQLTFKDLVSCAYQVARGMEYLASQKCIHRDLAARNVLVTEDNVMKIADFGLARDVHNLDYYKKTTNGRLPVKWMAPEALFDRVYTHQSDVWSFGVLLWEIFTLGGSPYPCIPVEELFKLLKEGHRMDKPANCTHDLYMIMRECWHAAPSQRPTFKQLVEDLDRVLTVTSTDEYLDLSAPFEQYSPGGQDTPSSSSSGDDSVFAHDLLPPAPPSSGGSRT

[4] = molecular target: T4, panel of 468 kinases (Homo sapiens, UniProt O43683); conditions: BUB1; 1 μM; read-out: % control
T4 construct: purchased KINOMEscan (ScanMAX) service
T4 sequence (O43683 whole entry): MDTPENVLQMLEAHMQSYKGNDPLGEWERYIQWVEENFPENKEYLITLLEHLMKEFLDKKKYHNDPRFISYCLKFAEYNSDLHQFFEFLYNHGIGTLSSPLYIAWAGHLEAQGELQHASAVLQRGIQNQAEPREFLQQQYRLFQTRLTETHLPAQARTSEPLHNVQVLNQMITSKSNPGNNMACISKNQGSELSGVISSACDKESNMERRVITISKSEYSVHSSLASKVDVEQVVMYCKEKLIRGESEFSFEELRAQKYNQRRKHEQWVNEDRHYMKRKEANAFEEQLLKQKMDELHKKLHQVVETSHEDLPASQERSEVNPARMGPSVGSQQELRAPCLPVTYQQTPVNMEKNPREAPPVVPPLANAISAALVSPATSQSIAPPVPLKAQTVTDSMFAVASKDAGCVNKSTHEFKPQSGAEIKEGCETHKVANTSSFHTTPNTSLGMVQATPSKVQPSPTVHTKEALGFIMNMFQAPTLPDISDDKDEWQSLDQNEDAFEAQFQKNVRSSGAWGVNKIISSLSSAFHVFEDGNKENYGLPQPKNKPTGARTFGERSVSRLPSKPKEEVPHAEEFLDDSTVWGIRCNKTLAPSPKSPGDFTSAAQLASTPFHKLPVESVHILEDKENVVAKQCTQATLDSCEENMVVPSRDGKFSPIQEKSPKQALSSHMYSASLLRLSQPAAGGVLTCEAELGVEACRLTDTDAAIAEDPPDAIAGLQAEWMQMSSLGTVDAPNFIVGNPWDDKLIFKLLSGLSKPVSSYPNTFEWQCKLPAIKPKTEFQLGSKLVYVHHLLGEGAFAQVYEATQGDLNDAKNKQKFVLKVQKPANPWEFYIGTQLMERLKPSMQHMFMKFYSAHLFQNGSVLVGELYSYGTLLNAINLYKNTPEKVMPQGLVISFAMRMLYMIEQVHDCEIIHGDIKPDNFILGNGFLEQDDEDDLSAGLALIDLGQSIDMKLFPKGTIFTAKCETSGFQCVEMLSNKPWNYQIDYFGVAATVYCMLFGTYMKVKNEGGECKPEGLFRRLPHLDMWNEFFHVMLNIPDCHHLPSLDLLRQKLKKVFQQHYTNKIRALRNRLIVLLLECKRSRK

[5] = molecular target: T5, panel of 468 kinases (Homo sapiens, UniProt Q9Y6E0); conditions: MST3; 1 μM; read-out: % control
T5 construct: purchased KINOMEscan (ScanMAX) service
T5 sequence (Q9Y6E0 whole entry): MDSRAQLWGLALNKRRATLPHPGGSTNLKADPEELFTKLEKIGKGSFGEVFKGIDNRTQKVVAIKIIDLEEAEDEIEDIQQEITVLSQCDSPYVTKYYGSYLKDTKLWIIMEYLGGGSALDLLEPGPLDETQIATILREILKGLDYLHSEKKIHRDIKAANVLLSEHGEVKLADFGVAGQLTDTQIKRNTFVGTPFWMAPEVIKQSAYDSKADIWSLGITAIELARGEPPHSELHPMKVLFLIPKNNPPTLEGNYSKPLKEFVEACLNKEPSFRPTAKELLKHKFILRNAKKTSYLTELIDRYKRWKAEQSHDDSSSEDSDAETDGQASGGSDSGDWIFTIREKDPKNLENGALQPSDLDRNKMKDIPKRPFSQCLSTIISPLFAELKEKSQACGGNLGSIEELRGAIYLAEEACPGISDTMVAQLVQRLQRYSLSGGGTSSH

[6] = molecular target: T6, panel of 468 kinases (Homo sapiens, UniProt Q13557); conditions: CAMK2D; 1 μM; read-out: % control
T6 construct: purchased KINOMEscan (ScanMAX) service
T6 sequence (Q13557 whole entry): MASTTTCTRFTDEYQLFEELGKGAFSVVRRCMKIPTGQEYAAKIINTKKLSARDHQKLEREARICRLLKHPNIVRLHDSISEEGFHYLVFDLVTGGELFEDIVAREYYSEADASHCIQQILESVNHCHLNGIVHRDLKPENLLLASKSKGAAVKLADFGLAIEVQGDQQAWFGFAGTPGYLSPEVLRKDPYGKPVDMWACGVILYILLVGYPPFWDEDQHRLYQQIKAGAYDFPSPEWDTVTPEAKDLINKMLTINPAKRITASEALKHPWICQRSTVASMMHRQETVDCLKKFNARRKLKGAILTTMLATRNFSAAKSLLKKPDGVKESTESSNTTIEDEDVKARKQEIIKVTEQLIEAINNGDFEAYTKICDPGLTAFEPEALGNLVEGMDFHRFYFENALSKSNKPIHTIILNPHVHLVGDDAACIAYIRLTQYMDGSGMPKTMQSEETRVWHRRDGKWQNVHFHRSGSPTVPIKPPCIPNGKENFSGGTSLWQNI

[7] = molecular target: T7, panel of 468 kinases (Homo sapiens, UniProt P07947); conditions: YES; 1 μM; read-out: % control
T7 construct: purchased KINOMEscan (ScanMAX) service
T7 sequence (P07947 whole entry): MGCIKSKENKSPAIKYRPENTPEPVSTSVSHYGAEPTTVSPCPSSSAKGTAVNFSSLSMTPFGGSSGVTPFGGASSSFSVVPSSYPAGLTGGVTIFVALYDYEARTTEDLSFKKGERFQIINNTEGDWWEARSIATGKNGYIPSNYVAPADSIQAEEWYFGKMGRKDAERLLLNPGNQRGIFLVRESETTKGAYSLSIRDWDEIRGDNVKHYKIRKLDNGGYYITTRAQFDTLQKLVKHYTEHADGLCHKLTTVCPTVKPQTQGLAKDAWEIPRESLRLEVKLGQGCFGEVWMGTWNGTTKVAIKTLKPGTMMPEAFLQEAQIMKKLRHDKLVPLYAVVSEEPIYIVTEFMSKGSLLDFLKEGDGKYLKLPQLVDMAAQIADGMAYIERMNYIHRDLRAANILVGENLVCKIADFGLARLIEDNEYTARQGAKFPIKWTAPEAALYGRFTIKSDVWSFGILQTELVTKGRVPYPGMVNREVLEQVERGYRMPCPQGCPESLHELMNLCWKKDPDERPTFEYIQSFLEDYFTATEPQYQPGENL

[8] = molecular target: T8, panel of 468 kinases (Homo sapiens, UniProt O14936); conditions: CASK; 1 μM; read-out: % control
T8 construct: purchased KINOMEscan (ScanMAX) service
T8 sequence (O14936 1-926): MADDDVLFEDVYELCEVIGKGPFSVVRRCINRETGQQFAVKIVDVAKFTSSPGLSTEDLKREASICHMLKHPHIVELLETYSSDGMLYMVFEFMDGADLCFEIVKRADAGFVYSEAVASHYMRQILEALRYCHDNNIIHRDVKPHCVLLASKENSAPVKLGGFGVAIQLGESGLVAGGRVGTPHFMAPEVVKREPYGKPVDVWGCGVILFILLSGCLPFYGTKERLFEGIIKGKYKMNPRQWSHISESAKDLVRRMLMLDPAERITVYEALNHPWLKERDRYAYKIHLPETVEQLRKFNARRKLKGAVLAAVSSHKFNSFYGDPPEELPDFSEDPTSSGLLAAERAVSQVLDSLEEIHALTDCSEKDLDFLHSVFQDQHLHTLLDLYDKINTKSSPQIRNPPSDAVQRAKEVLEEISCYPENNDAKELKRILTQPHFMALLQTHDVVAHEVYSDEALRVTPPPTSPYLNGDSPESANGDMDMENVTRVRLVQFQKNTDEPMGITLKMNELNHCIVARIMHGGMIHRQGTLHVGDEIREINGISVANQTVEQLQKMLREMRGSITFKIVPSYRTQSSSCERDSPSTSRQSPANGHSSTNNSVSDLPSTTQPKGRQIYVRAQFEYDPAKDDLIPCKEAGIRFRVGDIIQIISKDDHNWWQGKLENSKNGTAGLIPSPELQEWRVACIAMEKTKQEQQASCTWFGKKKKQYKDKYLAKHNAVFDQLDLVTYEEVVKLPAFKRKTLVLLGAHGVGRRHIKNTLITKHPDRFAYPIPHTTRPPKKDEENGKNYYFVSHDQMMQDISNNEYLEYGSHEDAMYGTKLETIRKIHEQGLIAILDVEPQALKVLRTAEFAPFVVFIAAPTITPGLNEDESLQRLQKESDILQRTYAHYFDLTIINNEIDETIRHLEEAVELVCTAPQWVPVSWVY

[9] = molecular target: T9, panel of 468 kinases (Homo sapiens, UniProt O43318); conditions: TAK1; 1 μM; read-out: % control
T9 construct: purchased KINOMEscan (ScanMAX) service
T9 sequence (O43318 1-606): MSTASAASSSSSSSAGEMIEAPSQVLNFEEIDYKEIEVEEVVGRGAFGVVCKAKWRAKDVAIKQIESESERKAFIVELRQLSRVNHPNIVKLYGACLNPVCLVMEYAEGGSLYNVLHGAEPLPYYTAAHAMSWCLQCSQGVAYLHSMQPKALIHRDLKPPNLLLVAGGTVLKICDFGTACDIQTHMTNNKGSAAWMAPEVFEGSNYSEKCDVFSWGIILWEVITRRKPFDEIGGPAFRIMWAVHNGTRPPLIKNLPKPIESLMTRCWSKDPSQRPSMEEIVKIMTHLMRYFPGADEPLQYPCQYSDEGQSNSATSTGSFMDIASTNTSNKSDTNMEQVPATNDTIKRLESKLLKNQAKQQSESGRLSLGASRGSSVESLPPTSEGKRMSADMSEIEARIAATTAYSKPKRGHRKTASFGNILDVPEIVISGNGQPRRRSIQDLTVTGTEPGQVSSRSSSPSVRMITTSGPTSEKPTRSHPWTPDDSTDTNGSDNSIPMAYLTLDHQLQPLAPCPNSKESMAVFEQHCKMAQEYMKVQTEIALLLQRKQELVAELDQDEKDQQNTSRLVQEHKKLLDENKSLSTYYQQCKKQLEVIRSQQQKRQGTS

T1 sequence (O96017 whole entry): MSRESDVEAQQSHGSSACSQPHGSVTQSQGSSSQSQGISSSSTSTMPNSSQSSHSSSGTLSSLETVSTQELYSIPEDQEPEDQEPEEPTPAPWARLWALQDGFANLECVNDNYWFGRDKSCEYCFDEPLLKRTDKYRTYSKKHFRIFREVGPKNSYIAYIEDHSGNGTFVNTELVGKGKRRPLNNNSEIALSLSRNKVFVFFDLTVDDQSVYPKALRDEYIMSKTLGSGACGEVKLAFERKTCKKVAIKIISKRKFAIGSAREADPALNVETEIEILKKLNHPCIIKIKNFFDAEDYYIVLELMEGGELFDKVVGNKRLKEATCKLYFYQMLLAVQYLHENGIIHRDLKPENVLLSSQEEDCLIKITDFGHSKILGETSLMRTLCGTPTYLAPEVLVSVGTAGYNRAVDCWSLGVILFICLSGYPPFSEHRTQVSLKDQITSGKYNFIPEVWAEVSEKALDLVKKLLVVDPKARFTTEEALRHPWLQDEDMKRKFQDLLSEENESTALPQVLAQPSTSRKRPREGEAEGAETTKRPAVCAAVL

Row | Structure (SMILES) | remaining binding at 1 µM [1] | remaining binding at 1 µM [2] | remaining binding at 1 µM [3] | remaining binding at 1 µM [4] | remaining binding at 1 µM [5] | remaining binding at 1 µM [6] | remaining binding at 1 µM [7] | remaining binding at 1 µM [8] | remaining binding at 1 µM [9]
1 | CNc1nc(Nc2ccc(S(=O)(=O)N3CCC(N4CCOCC4)CC3)cc2OC)nc2[nH]cc(Cl)c12 [Compound 12, 5-chloro-N2-(2-methoxy-4-((4-morpholinopiperidin-1-yl)sulfonyl)phenyl)-N4-methyl-7H-pyrrolo[2,3-d]pyrimidine-2,4-diamine] | 1.8% | 94% | 100% | 60% | 97% | 96% | 100% | 90% | 100%
2 | CNc1nc(Nc2ccc(C(=O)N3CCC(N4CCOCC4)CC3)c3c2OCO3)nc2[nH]cc(Cl)c12 [Compound 75, (7-((5-chloro-4-(methylamino)-7H-pyrrolo[2,3-d]pyrimidin-2-yl)amino)benzo[d][1,3]dioxol-4-yl)(4-morpholinopiperidin-1-yl)methanone] | 0.95% | 74% | 100% | 49% | 98% | 89% | 100% | 99% | 29%
3 | CNc1nc(Nc2ccc(P3(=O)CCN(C4CCOCC4)CC3)cc2OC)nc2[nH]cc(Cl)c12 [Compound 77, 4-(4-((5-chloro-4-(methylamino)-7H-pyrrolo[2,3-d]pyrimidin-2-yl)amino)-3-methoxyphenyl)-1-(tetrahydro-2H-pyran-4-yl)-1,4-azaphosphinane 4-oxide] | 0.7% | 74% | 100% | 61% | 88% | 89% | 100% | 95% | 84%
